Earlier results, collected in publication PMC6843445, “Pharmacokinetic Properties of Fluorescently Labelled Hydroxypropyl-Beta-Cyclodextrin” (Biomolecules, 2019).
Read-outs that look alike come from different tables or passages of the source.

Assays:
[1] = parameters: method as in ref [4],[27] = [4]; PMID 16018907; doi:10.1016/j.fct.2005.03.007; 4. Gould S. Scott R.C. 2-Hydroxypropyl-beta-cyclodextrin (HP-b-CD): A toxicology review Food Chem. Toxicol. 2005 43 1451 1459 10.1016/j.fct.2005.03.007 16018907 || [27]; 27. Committee for Human Medicinal Products (CHMP), European Medicines Agency Cyclodextrins Used as Excipients. EMA/CHMP/333892/2013 9 10 2017 Available online: http://www.ema.europa.eu/docs/en_GB/docu; settings: rats; ref [4],[27]; cited from earlier work
[2] = parameters: method as in PMID 28803710; settings: patients with NPC1, lumbar intrathecal; ref [2]; cited from earlier work
Caco-2 cells = system: Caco-2 cells; parameters: method as in PMID 27317368, PMID 20434542; settings: HPBCD with different DS; ref [6],[7]; cited from earlier work
[3] = parameters: method as in ref [4] = [4]; PMID 16018907; doi:10.1016/j.fct.2005.03.007; 4. Gould S. Scott R.C. 2-Hydroxypropyl-beta-cyclodextrin (HP-b-CD): A toxicology review Food Chem. Toxicol. 2005 43 1451 1459 10.1016/j.fct.2005.03.007 16018907; settings: dogs; ref [4]; cited from earlier work
[4] = parameters: method as in PMID 27317368, PMID 20434542; settings: HPBCD with different DS; ref [6],[7]; cited from earlier work
[5] = parameters: method as in PMID 23611577; settings: pigs, 2 week 0.25–0.5 g/kg/infusion; ref [9]; cited from earlier work
[6] = parameters: method as in ref [4] = [4]; PMID 16018907; doi:10.1016/j.fct.2005.03.007; 4. Gould S. Scott R.C. 2-Hydroxypropyl-beta-cyclodextrin (HP-b-CD): A toxicology review Food Chem. Toxicol. 2005 43 1451 1459 10.1016/j.fct.2005.03.007 16018907; settings: rats; ref [4]; cited from earlier work
[7] = parameters: method as in ref [4] = [4]; PMID 16018907; doi:10.1016/j.fct.2005.03.007; 4. Gould S. Scott R.C. 2-Hydroxypropyl-beta-cyclodextrin (HP-b-CD): A toxicology review Food Chem. Toxicol. 2005 43 1451 1459 10.1016/j.fct.2005.03.007 16018907; settings: rats, 4–7 days 225 mg/kg/day i.v.; ref [4]; cited from earlier work
[8] = parameters: method as in PMID 22552390; settings: rats, subcutaneous long-term, daily dose of 200 mg/kg; ref [8]; cited from earlier work
[9] = parameters: method as in PMID 30521943; settings: after 30 min; ref [21]; cited from earlier work

| Compound | no observed adverse effect levels (NOAELs) [1] [mg/kg/day] | disease progression [2] | cytotoxicity on Caco-2 cells (Caco-2 cells) | organs with the highest HPBCD concentrations [3] | hemolytic activity [4] | lung findings [5] | organs with the highest HPBCD concentrations [6] | lung findings [7] | bone effect [8] | activity in the lung compared to other organs [9] |
| --- | --- | --- | --- | --- | --- | --- | --- | --- | --- | --- |
| CC(O)COC[C@H]1O[C@@H]2O[C@H]3[C@H](O)[C@@H](O)[C@@H](O[C@H]4[C@H](O)[C@@H](O)[C@@H](O[C@H]5[C@H](O)[C@@H](O)[C@@H](O[C@H]6[C@H](O)[C@@H](O)[C@@H](O[C@H]7[C@H](O)[C@@H](O)[C@@H](O[C@H]8[C@H](O)[C@@H](O)[C@@H](O[C@H]1[C@H](O)[C@H]2O)O[C@@H]8COCC(C)O)O[C@@H]7COCC(C)O)O[C@@H]6COCC(C)O)O[C@@H]5COCC(C)O)O[C@@H]4COCC(C)O)O[C@@H]3COCC(C)O (stereo partly drawn) [HPBCD, 2-Hydroxypropyl-beta-cyclodextrin] | 50 | slowed disease progression | no toxicity | kidneys and liver | low hemolytic activity | inflammatory changes in the lung | kidneys and lung | foamy macrophage infiltration of the lung | caused bone loss | – |
| ^68Ga-labeled NODAGA-hydroxypropyl-beta-cyclodextrin [^68Ga-NODAGA-HPBCD] | – | – | – | – | – | – | – | – | – | relatively higher |
